How the values were obtained:
Sequence S1 = assay: Sequence analysis by stepwise chemical reaction (pyrogram), ATP sulfurylase system, Condition 3; format: biochemical; conditions: Sequence S1 (maximum two consecutive nucleotides); final concentration 2 μM
Protocol: Next, by using the developed substrates, nucleotide sequences were analyzed. FIG. 15 is pyrograms showing the results of sequence analysis using synthetic nucleotide A3d as a substitute for dATP in a sequencing method using a stepwise chemical reaction. The analyzed oligo Sequence S1 and a primer […] are described below.
Of note is that the Sequence P2 represents a primer sequence. This primer can complementarily bind to the underlined portion of the above Sequence S1. In addition, reagent conditions used for the sequence analysis were designated in Condition 3 of Table 1.
At the bottom of each diagram, the injected nucleic acid substrate species (the injected nucleotide type) were designated. Among the species, the substrate represented by “A” is A3d in (1) and dATPαS in (2), respectively. Also, at the top, nucleotide types which were incorporated in this oligo were designated. Specifically, the nucleotide types represent a complementary strand sequence that is an upstream sequence of the portion (the underlined portion of the Sequence S1) which complementarily binds to the primer P2. […] In addition, the broken lines represent standard values which convert the amount of the resulting luminescence into the number of nucleotides. For example, with regard to the above “CC”, the amount of luminescence equivalent to two nucleotides was observed. […]

luciferase = luciferase (Photinus pyralis, UniProt P08659); assay: Evaluation of substrate specificity for luciferase (luminescence on dispensing the substrate); format: biochemical; conditions: for Substrate specificity (S) for luciferase, relative to that of ATP: amount of luminescence per unit concentration, substrate specificity of ATP normalized as 1
Protocol: In respect to the nucleic acid substrates synthesized, whether or not the substrates became a substrate for luciferase was evaluated by the following procedure. First, a luminescence reagent designated in Condition 1 of Table 1 was prepared.
Next, a reaction solution was prepared using 20 μL of this luminescence reagent, and 0.2 μL of a nucleic acid substrate of evaluation subject was injected. Then, luminescence emitted at this occasion was estimated. FIG. 6 is a graph showing the amount of luminescence when ATP, dATP, C^7dATP, and dATPαS are each dispensed as a substrate. The abscissa (C) indicates a final concentration of the compound in a reaction reagent. For example, when 0.2 μl of 1 μM substrate is dispensed, the final concentration is about 0.01 μM. An amount of luminescence (U) indicated in the ordinate was plotted by normalizing the amount of luminescence at 0.01 μM of ATP as 1. From this graph, the amount of luminescence (U) is found to be proportional to the final concentration (C). Because of this, as a substrate specificity (or substrate reactivity) for luciferase, the value (S) indicating the amount of luminescence per unit concentration is defined as described below. Substrate specificity (S)≡Amount of luminescence (U)/Final concentration (C)[μM]×0.01 (In this Definition, the Substrate Specificity of ATP is Normalized as 1).
The four points designated in the left side of the graph indicate each substrate specificity (S) of ATP, dATP, dATPαS, and C^7dATP. For a sequencing method using a stepwise chemical reaction represented by pyrosequencing, the amount of ATP generated from pyrophosphate produced in elongation of one nucleotide is equivalent to the amount of a target present in a reaction solution when all of the targets have been elongated. In addition, elongation of a plurality of nucleotides causes the amount to be multiplied by the number of the nucleotides. Generally speaking, the amount of a nucleic acid substrate which should be dispensed per reaction for sequencing requires about 100 times the amount of the target for analysis. This is because a sequenced region may sometimes contain about 10 consecutive identical nucleotides; and a reaction solution for this sequencing method has a substrate-degrading enzyme together, so that the nucleic acid elongation and substrate degradation are competed. Shortage of the substrates causes incomplete elongation, so that the following sequence analysis cannot be carried out. […] As a countermeasure against it, the substrate having about 100 times the target amount which has been generally used is preferably dispensed per reaction.
In this Example, the synthesized nucleic acid substrates were purified by liquid chromatography. However, removal of pyrophosphate that had been incorporated during the synthesis may be insufficiently carried out only by liquid chromatography-mediated purification. At that occasion, the present inventors treated the synthesized nucleic acid substrates by a pyrophosphate-degrading enzyme (PPase) to decompose the pyrophosphate. Specifically, the synthesized nucleic acid substrate was diluted in a reaction solution (100 mM Tris-Acetate, 0.5 mM EDTA, 5 mM Mg-Acetate, 1 mM DTT, pH 7.5) at a concentration of 500 μM. Then, PPase was added at 0.2 mU/μL, and the mixture was reacted at 30° C. for 30 minutes, which caused degradation of pyrophosphate in the solution. This method represents one example. […]

Chain of luciferase (P08659 whole entry, species assumed): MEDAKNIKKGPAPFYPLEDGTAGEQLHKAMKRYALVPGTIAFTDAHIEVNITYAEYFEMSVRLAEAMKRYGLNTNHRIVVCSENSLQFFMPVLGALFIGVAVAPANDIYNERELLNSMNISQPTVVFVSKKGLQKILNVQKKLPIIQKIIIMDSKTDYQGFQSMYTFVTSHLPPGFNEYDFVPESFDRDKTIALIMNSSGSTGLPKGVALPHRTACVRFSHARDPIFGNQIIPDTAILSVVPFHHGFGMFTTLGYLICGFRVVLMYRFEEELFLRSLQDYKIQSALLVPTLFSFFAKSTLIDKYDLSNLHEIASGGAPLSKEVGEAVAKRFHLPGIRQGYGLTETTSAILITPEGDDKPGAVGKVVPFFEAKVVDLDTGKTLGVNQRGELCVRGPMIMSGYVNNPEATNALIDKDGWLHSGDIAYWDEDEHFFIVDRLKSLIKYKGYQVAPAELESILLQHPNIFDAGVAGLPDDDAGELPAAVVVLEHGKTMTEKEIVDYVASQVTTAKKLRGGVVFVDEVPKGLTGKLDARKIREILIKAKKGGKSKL

SMILES	Sequence analysis result as substitute for dATP (Sequence S1)	Substrate specificity for luciferase compared with that of dATPαS (luciferase; FIG. 7)	Substrate specificity (S) for luciferase, relative to that of ATP (luciferase)
Nc1ncnc2c1c(/C=C/C(=O)NCCc1ccncc1)cn2[C@H]1CC(O)[C@@H](COP(=O)(O)OP(=O)(O)OP(=O)(O)O)O1 (some centres unmarked) [A3d]	can be used for a nucleotide sequence analysis	about one order higher	1/1000
Nc1ncnc2c1ncn2[C@H]1C[C@H](O)[C@@H](COP(O)(=S)OP(=O)(O)OP(=O)(O)O)O1 (some centres unmarked) [dATPαS]	can be used for a nucleotide sequence analysis	–	1/10000
